We go through 3 compounds from patent publication US12280090B2, “Antimicrobial peptides” (priority 2018, dated 2025).

≈ marks a conversion by molar mass, not a printed value. Like-named read-outs stand apart in the source and are kept apart here. Ends that are not written are not given here. Peptide text beside a SMILES is read from it.

Data set [1] relates to Escherichia coli—ATCC 25922 “wild type”. Format: cell-based. The essentials:
(§1)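 MIC/MBC of cationic antimicrobial peptides by a broth method adapted for cationic peptides, against E. coli ATCC 25922 and clinical MDR isolates (ESBL, KPC, NDM). Some peptides made as TFA or acetate salts. Each run on a different day with multiple replicates.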

For data set [2], the system named is Escherichia coli—Carbapenemase-producing organism; Klebsiella pneumoniae carbapenemase. The class given is cell-based. In short, it runs like this:
as §1

The subject of data set [3] is Escherichia coli—Carbapenemase-producing organism; New-Dehli Metallobetalactamase. The class given is cell-based. The essentials: as §1
In data set [4] the test system is Escherichia coli—Extended spectrum beta-lactamase. Format: cell-based. In short, it runs like this: as §1
In data set [5] the test system is Methicillin resistant Staphylococcus aureus. The class given is cell-based. As to the method: (§2) Independent experiments were conducted with different strains of Staphylococcus aureus—ATCC 29213 “wild type”; and Staphylococcus aureus—Methicillin resistant Staphylococcus aureus.
(§3) The ATCC (American Type Culture Collection) strains received from Cedarlane. Multi drug resistant (MDR) strains, as clinical isolates, were received from the laboratory of Dr. Linda Hoang.
(§4) Putative antimicrobial peptides were synthesized by GeneScript. A-list antimicrobial peptides re-synthesized by GeneScript. P2_CCH, P5_CCH, and P5_CCH_A19K were each synthesized under two conditions: standard synthesis using TFA, and the other with TFA-removal using acetate as a counter-ion. A MIC method, adapted for use with cationic antimicrobial peptides, was used to evaluate MIC antimicrobial activity (Hancock 1999).
(§5) The following data are presented to show the activity (MIC/MBC in μg/mL) of certain antimicrobial peptides described herein relative to a modified/synthetic version having a specified substitution. While data presented in tables above may be presented again, or may be represented in data provided in the tables below, such duplication is believed to assist the reader in readily noting comparisons. Different Run Numbers noted in the following tables denotes experiments conducted on different days, with each run reflecting multiple n values.

Data set [6] relates to Staphylococcus aureus—ATCC 29213 “wild type”. Format: cell-based. How it is done:
as §2, §3, §4, §5

In another data set the test system is Salmonella Enteritidis. Format: cell-based.
Description: as §4, §5

Data set [7] deals with Salmonella Heidelberg (MDR). The class given is cell-based. In short, it runs like this: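 MIC/MBC in μg/mL determined by a broth MIC method adapted for cationic antimicrobial peptides against clinical-isolate multidrug-resistant strain. Some peptides were tested as TFA or acetate counter-ion preparations; runs on different days, each with multiple replicates.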
A further data set can be described thus: Hemolysis test (HC50). As to conditions: red blood cells. How it is done:
Peptides were tested for activity using as minimum inhibitory concentration (MIC), and minimum bactericidal concentration (MBC) determinations. For certain peptides, a hemolysis test was also conducted to determine HC50 (μg/mL) as an indicator of hemolytic activity based on the concentration of an antimicrobial compound that kills 50% red blood cells.
In Table 27, the designations P2, P2M, P3, P3M, P4, P4M, P5, P5M, P6, and P6M refer to peptides P2_CCH, P2_CCH_T15K_P7R, P3_CCH, P3_CCH_D8K_Q23C, P4_CCH, P4_CCH_P31K, P5_CCH, P5_CCH_A19K, P6_CCH, and P6_CCH_S12K, respectively, as defined above.

For data set [8], the system named is Escherichia coli: ATCC 9723H. Format: cell-based. As to conditions: ATCC 9723. In short, it runs like this: (§6)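 MIC and MBC were run by broth microdilution adapted from Hancock cationic-AMP and CLSI methods, in Mueller Hinton broth (+5% lysed horse blood for S. pyogenes) at about 5×10^5 CFU/mL. Peptides came from two-fold 10× stocks (2560–5 μg/mL) and were incubated 16-24 h at 37 °C. For MBC, the MIC well and two more-concentrated wells were plated on MHA for 24 h at 37 °C.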

In data set [9] the test system is Mycobacterium smegmatis (MC^2155). Format: cell-based. As to conditions: Mycobacterium (MC^2155). The essentials: as §6
Data set [10] deals with Staphylococcus aureus: ATCC 6538P. The class given is cell-based. To be noted: ATCC 6538. In short, it runs like this: as §6
In data set [11] the test system is Streptococcus pyogenes: unknown strain, hospital isolate. Format: cell-based. As to conditions: unknown strain, hospital isolate. In short, it runs like this: as §6

For the compound `CC[C@H](C)[C@H](NC(=O)[C@@H](NC(=O)[C@@H]1CCCN1C(=O)[C@H](Cc1ccccc1)NC(=O)[C@@H](N)Cc1ccccc1)[C@@H](C)CC)C(=O)N[C@@H](C)C(=O)N[C@@H](CCCNC(=N)N)C(=O)N[C@@H](CC(C)C)C(=O)N[C@@H](C)C(=O)N[C@@H](C)C(=O)N[C@@H](CCCCN)C(=O)N[C@H](C(=O)N[C@H](C(=O)N1CCC[C@H]1C(=O)N[C@@H](CO)C(=O)N[C@@H](CC(C)C)C(=O)N[C@H](C(=O)N[C@@H](CS)C(=O)N[C@@H](CCCCN)C(=O)N[C@H](C(=O)N[C@H](C(=O)N[C@@H](CCCCN)C(=O)N[C@@H](CCCCN)C(=O)N[C@@H](CS)C(=O)O)[C@@H](C)O)C(C)C)C(C)C)[C@@H](C)CC)C(C)C` [Peptide P5_CCH_A19K] (H-FFPIIARLAAKVIPSLVCKVTKKC-OH; N-terminus and C-terminus assumed), the “Minimum Inhibitory Concentration (MIC)” value in data set [1] is 4 to 16 µg/mL; in data set [2] it was 4 to 16 µg/mL; in data set [3], 4 to 16 µg/mL; in [4], 4 to 16 µg/mL; in data set [5] (Methicillin resistant), 2 to 8 µg/mL; in data set [6] (ATCC 29213), 2 to 8 µg/mL. Also, the “Minimum Inhibitory Concentration (MIC)” value (in the data set on Salmonella Enteritidis; in data set [7]) was 16 to 64 µg/mL throughout. Besides, the HC50 in “Hemolysis test (HC50)” (RPMI) lay within 64 to 128 µg/mL.

As for `CC[C@H](C)[C@H](NC(=O)[C@H](CO)NC(=O)[C@H](CCCCN)NC(=O)CNC(=O)[C@@H](NC(=O)[C@@H](NC(=O)[C@H](CCCCN)NC(=O)[C@@H](NC(=O)[C@@H](NC(=O)[C@H](CCC(=O)O)NC(=O)[C@H](Cc1c[nH]c2ccccc12)NC(=O)[C@H](CC(C)C)NC(=O)CN)[C@@H](C)O)[C@@H](C)CC)[C@@H](C)O)[C@@H](C)O)C(=O)N[C@@H](C)C(=O)N[C@@H](CC(C)C)C(=O)N[C@@H](CC(N)=O)C(=O)N[C@@H](CC(C)C)C(=O)N[C@@H](CC(C)C)C(=O)N[C@@H](CC(=O)O)C(=O)N[C@@H](CCCCN)C(=O)N[C@H](C(=O)N[C@@H](CCCCN)C(=O)N[C@@H](CS)C(=O)N[C@@H](CCCCN)C(=O)N[C@H](C(=O)N[C@@H](C)C(=O)NCC(=O)NCC(=O)N[C@@H](CS)C(=O)N1CCC[C@H]1C(=O)N1CCC[C@H]1C(=O)O)[C@@H](C)CC)[C@@H](C)CC` [Peptide P6_CCH] (H-GLWETIKTTGKSIALNLLDKIKCKIAGGCPP-OH; N-terminus and C-terminus assumed), the MBC in data set [8] was 16 to 64 µg/mL; in data set [10] it was 256 µg/mL (≈ 78.3 µM); in [11] it was 128 µg/mL (≈ 39.1 µM); in [5] (Methicillin resistant), 256 µg/mL (≈ 78.3 µM). The MIC in [8] was 16 to 64 µg/mL; in data set [9], 2 µg/mL (≈ 0.612 µM); in data set [10], 128 to 256 µg/mL; in [11], 128 µg/mL (≈ 39.1 µM). For the same compound, the “Minimum Inhibitory Concentration (MIC)” value in data set [1] was 8 to 16 µg/mL; in data set [2] it was 8 µg/mL; in [3], 16 to 32 µg/mL; in [4], 8 to 16 µg/mL; in data set [5] (MRSA, Gram positive), 128+ ug/mL; in [6] (S. aureus ATCC 29213, Gram positive) it was 128+ ug/mL. For the same compound, the “Minimum Inhibitory Concentration (MIC)” value in the data set on Salmonella Enteritidis is 64 to 128 µg/mL; in data set [7] it was 64 µg/mL.

Regarding “FFPRVLRLANKFLPKIYCALPKSVGN [P2_CCH_T15K_P7R]”, the “Minimum Inhibitory Concentration (MIC)” value was 4 to 8 µg/mL in [1]; 8 µg/mL in data set [2]; 4 to 8 µg/mL in data set [3]; 2 to 8 µg/mL in [4]; 32 to 64 µg/mL in data set [5] (Methicillin resistant); 64 to 128 µg/mL in data set [6] (ATCC 29213). The “Minimum Inhibitory Concentration (MIC)” value is 32 to 64 µg/mL in the data set with Salmonella Enteritidis and 16 to 64 µg/mL in data set [7]. Moreover, in data set [2], the MBC came out at 8 µg/mL. This compound returned an MIC in [2] of 8 µg/mL. Further, in the data set “Hemolysis test (HC50)” (HC50 (hemolysis test)), the HC50 worked out at 64 µg/mL.

The HC50 is the concentration that lyses half of the red blood cells. Read a high HC50 as less damage to red cells. Usually MBC stands for the lowest tested concentration that kills the bacteria rather than only halting them. Usually MIC stands for the lowest concentration that inhibits growth of the organism.
